inhibition, IC50 and Ki data for 3 compounds are collected here from ChEMBL document CHEMBL4725376, “Identification of the first noncompetitive SARM1 inhibitors” (Bioorg Med Chem, 2020).

Holding throughout (format): subcellular
Assay [1] addresses T1, NAD(+) hydrolase SARM1 (Homo sapiens) (UniProt Q6SZW1).
T1 sequence (whole entry): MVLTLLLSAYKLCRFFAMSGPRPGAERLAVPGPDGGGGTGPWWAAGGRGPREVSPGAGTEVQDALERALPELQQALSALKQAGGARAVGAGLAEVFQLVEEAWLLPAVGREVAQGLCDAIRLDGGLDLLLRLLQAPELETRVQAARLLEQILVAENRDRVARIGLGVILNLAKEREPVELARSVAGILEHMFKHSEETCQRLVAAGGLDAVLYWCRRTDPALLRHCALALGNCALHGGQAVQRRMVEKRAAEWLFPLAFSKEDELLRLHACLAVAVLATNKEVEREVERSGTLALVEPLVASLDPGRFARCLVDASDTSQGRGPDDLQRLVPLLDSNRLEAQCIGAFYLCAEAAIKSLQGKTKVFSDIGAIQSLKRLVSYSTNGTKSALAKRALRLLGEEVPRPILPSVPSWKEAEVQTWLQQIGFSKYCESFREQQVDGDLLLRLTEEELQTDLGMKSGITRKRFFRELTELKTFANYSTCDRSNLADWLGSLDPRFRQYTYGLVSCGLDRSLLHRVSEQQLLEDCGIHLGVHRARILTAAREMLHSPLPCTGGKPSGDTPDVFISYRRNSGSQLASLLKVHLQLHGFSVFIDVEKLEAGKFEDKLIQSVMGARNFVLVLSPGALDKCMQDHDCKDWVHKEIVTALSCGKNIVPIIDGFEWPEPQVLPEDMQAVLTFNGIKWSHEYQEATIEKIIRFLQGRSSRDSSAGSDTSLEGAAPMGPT
The assay is described as follows: Inhibition of recombinant human SARM1 TIR domain (561 to 724 residues) expressed in Escherichia coli C43 (DE3) cells lysates using ENAD as substrate at 25 uM preincubated for 20 mins followed by ENAD addition and measured after 1 hr relative to control.

The target of assay [2] is T2, NAD(+) hydrolase SARM1 (Homo sapiens, UniProt Q6SZW1).
T2 sequence (Q6SZW1 whole entry): T1 sequence (whole entry)
As to the kind of experiment: Inhibition of recombinant human SARM1 TIR domain (561 to 724 residues) expressed in Escherichia coli C43 (DE3) cells lysates using ENAD as substrate preincubated for 20 mins followed by ENAD addition and measured at 15 sec interval for 15 mins.

Assay [3] addresses T2, NAD(+) hydrolase SARM1. As to the kind of experiment: Noncompetitive inhibition of recombinant human SARM1 TIR domain (561 to 724 residues) expressed in Escherichia coli C43 (DE3) cells lysates assessed as EADPR formation using ENAD as substrate preincubated for 20 mins followed by ENAD addition and measured at 15 sec interval for 1 hr.
Assay [4] deals with T2, NAD(+) hydrolase SARM1. The assay is described as follows: Competitive inhibition of recombinant human SARM1 TIR domain (561 to 724 residues) expressed in Escherichia coli C43 (DE3) cells lysates assessed as EADPR formation using ENAD as substrate preincubated for 20 mins followed by ENAD addition and measured at 15 sec interval for 1 hr.

Structures can show the parent of a compound that is named as a salt.

Turning to `NC(=O)N/N=C/c1ccc([N+](=O)[O-])o1` [NITROFURAZONE], the inhibition in assay [1] came out at 27%. Besides, the half-inhibitory concentration (IC50) on NAD(+) hydrolase SARM1 [2] stood at 90 µM. In addition, on NAD(+) hydrolase SARM1 [3], the Ki worked out at 120 µM.
`C[C@H]1c2cccc(O)c2C(=O)C2=C(O)[C@]3(O)C(=O)C(C(N)=O)=C(O)[C@@H](N(C)C)[C@@H]3[C@@H](O)[C@@H]21`: in assay [1], the inhibition worked out at 26%.
Regarding `Nc1ccc(/N=N/c2ccccc2)c(N)n1` [PHENAZOPYRIDINE HYDROCHLORIDE], the inhibition in assay [1] was 44%. The Ki on NAD(+) hydrolase SARM1 [4] stood at 70 µM.
